For one data set, the system named is NCI-H460. As to the kind of experiment: Human cancer cell line growth inhibition, lung-NSC NCI-H460. The class given is cell-based.
Another data set has as its system NCI 60-cell screen. Briefly: NCI 60-cell screen. The class given is cell-based, human. As to conditions: mean ± SE, read-out: mean-panel GI50.
The next data set deals with Neisseria gonorrhoeae. Briefly: Broth microdilution susceptibility assay, Neisseria gonorrhoeae. The class given is cell-based. The text has this:
(§1) Compounds were screened against the bacteria Stenotrophomonas maltophilia, Micrococcus luteus, Staphylococcus aureus, Escherichia coli, Enterobacter cloacae, Enterococcus faecalis, Streptococcus pneumoniae, Neisseria gonorrhoeae, and the fungi Candida albicans and Cryptococcus neoformans, according to established broth microdilution susceptibility assays (NCCLS approved standard M7-A4, 1997; NCCLS approved standard M27-A, 1997). The minimum inhibitory concentration was defined as the lowest concentration of compound that inhibited all visible growth of the test organism (optically clear). Assays were repeated on separate days.
For orientation: In broth dilution the organism is exposed to a series of concentrations in liquid medium.

For another data set, the system named is BXPC-3. Briefly: Human cancer cell line growth inhibition, pancreas BXPC-3. It is filed as cell-based. As to conditions: BXPC-3 human cancer cell line.
The test system of another data set is DU-145. Briefly: Human cancer cell line growth inhibition, prostate DU-145. It is filed as cell-based. As to conditions: DU-145 human cancer cell line.
The test system of a further data set is SF5268. Briefly: Human cancer cell line growth inhibition, CNS gliob SF5268. The class given is cell-based.
A further data set relates to KM20L2. As to the kind of experiment: Human cancer cell line growth inhibition, colon KM20L2. The class given is cell-based.
For another data set, the system named is MCF-7. As to the kind of experiment: Human cancer cell line growth inhibition, breast MCF-7. It is filed as cell-based. As to conditions: MCF-7 human cancer cell line.
The conditions of data set [1]: 25° C.
The next data set relates to bacteria and fungi panel. Briefly: Broth microdilution screen, whole panel of bacteria and fungi. The class given is cell-based. As to conditions: among the compounds screened, Table III.
Text: as §1

The next data set can be described thus: physchem. As to conditions: 25 °C, water.
The next data set has as its system Streptococcus pneumoniae. Briefly: Broth microdilution susceptibility assay, Streptococcus pneumoniae. It is filed as cell-based. As to conditions: read-out: Minimum inhibitory concentration.
Text: as §1

A further data set deals with Cryptococcus neoformans. Briefly: Broth microdilution susceptibility assay, Cryptococcus neoformans. It is filed as cell-based. As to conditions: read-out: Minimum inhibitory concentration.
Text: as §1

The next data set concerns Micrococcus luteus. Briefly: Broth microdilution susceptibility assay, Micrococcus luteus. As to conditions: read-out: Minimum inhibitory concentration. It is filed as cell-based.
Text: as §1

Another data set has as its system mitosis. As to conditions: compared with the Z-isomer (1a); cited from earlier work.

In brackets after ≈: the same amount, converted by molar mass. Read-outs that look alike come from different tables or passages of the source.

With “Sodium combretastatin A-2 3′-O-phosphate [Compound 2a]”, the “GI50 Lung-NSC NCI-H460” value with NCI-H460 stood at 0.41 µg/mL. The GI50 in the data set with NCI 60-cell screen was 165 ± 30.7 nM. Also, in the data set on Neisseria gonorrhoeae, the Minimum inhibitory concentration amounted to 8 µg/mL. Also, in the data set with BXPC-3, the “GI50 Pancreas BXPC-3” value was 2.1 µg/mL. Also, the “GI50 Prostrate DU-145” value in the data set on DU-145 turned out to be 0.053 µg/mL. For the same compound, in the data set with SF5268, the “GI50 CNSGliob SF5268” value was 0.042 µg/mL. Further, the “GI50 Colon KM20L2” value in the data set on KM20L2 was determined as 3.8 µg/mL. For the same compound, the “GI50 Breast MCF-7” value in the data set with MCF-7 worked out at 0.045 µg/mL. Moreover, in [1], the Solubility in water was 18000 µg/mL.
`COc1ccc(/C=C\c2cc(OC)c3c(c2)OCO3)cc1O` [Compound 1a, Combretastatin A-2]: the antimicrobial spectrum entry in the data set with bacteria and fungi panel is recorded as “broadest antimicrobial spectra”. Moreover, the solubility in the data set “physchem” is less than 1000 µg/mL. Also, the GI50 in the data set on NCI-H460 worked out at 0.043 µg/mL (≈ 0.143 µM); in the data set on NCI 60-cell screen (Homo sapiens), 83.3 ± 17.3 nM; in the data set with BXPC-3 it was 0.014 µg/mL (≈ 0.0466 µM); in the data set with DU-145 (read-out: GI50 Prostrate DU-145) it was 0.0054 µg/mL (≈ 0.018 µM); with SF5268 (read-out: GI50 CNSGliob SF5268), 0.0083 µg/mL (≈ 0.0276 µM); in the data set with KM20L2 (KM-20L2), 0.47 µg/mL (≈ 1.57 µM). In the data set on MCF-7 (MCF7), this compound displayed a GI50 of 0.0042 µg/mL (≈ 0.014 µM). The MIC in the data set with Neisseria gonorrhoeae (read-out: Minimum inhibitory concentration) came out at 32 µg/mL (≈ 107 µM); in the data set with Streptococcus pneumoniae, 64 µg/mL (≈ 213 µM); with Cryptococcus neoformans, 64 µg/mL (≈ 213 µM); in the data set with Micrococcus luteus, 64 µg/mL (≈ 213 µM). Also, the Solubility in water in data set [1] was less than 1000 µg/mL.
Consider `COc1ccc(C=Cc2cc(OC)c3c(c2)OCO3)cc1O` (single isomer, unassigned) [E-isomer of combretastatin A-2], for which, in the data set with mitosis, the antimitotic activity entry is on record as “considerably less antimitotic activity”.

Broadly, the GI50 is the concentration at which growth is held to half of that of the control. For orientation: solubility means the concentration that dissolves in the medium under given conditions. Lower therefore signals a poorly soluble substance.
